Literature values, collected in US5391753A, “Heteroaryl substituted phenylethenyl compounds having retinoid-like biological activity” (Allergan, Inc., priority 1993, dated 1995).

System: TPA induced ODC activity (ornithine decarboxylase)
Conditions: qualitative statement on retinoic acid, background

SMILES: CC1=C(/C=C/C(C)=C/C=C/C(C)=C/C(=O)O)C(C)(C)CCC1 [Retinoic acid]
- inhibition of induction of ODC activity by TPA: inhibits this induction of ODC activity by TPA
